Converted amounts (≈) assume the structure as drawn. “Also recorded” adds a separate entry of the source. Read-outs that look alike come from different tables or passages of the source. Starred links: 1 amine or outer side, 2 acyl side, 3 side chain; linkers in the order of their positions; H or OH if unused. Non-standard residues stand in square brackets, D forms with d. Residues, ends and D or L forms follow the SMILES beside them. ξ: configuration not given here. *: point of attachment. X1 = CC(=O)N[C@H]1[C@H](OC2CC(C(=O)[*:2])N([*:1])C2CO)O[C@H](CO)[C@@H](OS(=O)(=O)O)[C@@H]1O; βGlcNAc = CC(=O)N[C@@H]1[C@@H](O)[C@H](O)[C@@H](CO)O[C@H]1*; ξE = NC(CCC(=O)O)C(=O)O; ξK = NCCCCC(N)C(=O)O; ξT = CC(O)C(N)C(=O)O; ξS = NC(CO)C(=O)O
What was measured:
[1] = system: Escherichia coli SC 8294; conditions: for Interaction: Escherichia coli SC 8294; for potentiation of β-lactam antibiotics: vs. Escherichia coli, in words
Experimental: (§1) The technique used was the double disk diffusion test, described by D. J. Krogstad and R. C. Moellering, Jr. in: Antibiotics in Laboratory Medicine, ed. V. Lorian, pps. 298-341, Williams and Wilkins, 1980. Disks contained 30 μg of compound, and unless noted otherwise, were placed adjacent to each other on the surface of a nutrient agar seeded with a test organism in a Petri dish.

[2] = system: Proteus rettgeri SC 8479; conditions: for potentiation of cell wall synthesis inhibitors other than β-lactams: Proteus rettgeri system; for potentiation of cell wall synthesis inhibitors other than β-lactams / potentiation of β-lactam antibiotics: in words; for potentiation of β-lactam antibiotics: vs. Proteus rettgeri
Experimental: as §1

[3] = system: gram-negative bacteria; test: enhancement of antibacterial activity of β-lactam antibiotics (general statement); type: cell-based; conditions: e.g., aztreonam, ampicillin, piperacillin and moxalactam, in words
Text: Moellering, Jr. in: Antibiotics in Laboratory Medicine, ed. V. Lorian, pps. 298-341, Williams and Wilkins, 1980.

[4] = system: Proteus mirabilis SC 3855; conditions: agar dilution
[5] = system: Proteus vulqaris SC 9416; conditions: agar dilution
[6] = system: Proteus rettgeri SC 8479; conditions: agar dilution
[7] = system: Staphylococcus aureus SC 1276; conditions: agar dilution
[8] = system: Salmonella typhosa SC 1195
[9] = 30 μg/disc compound plus Cefoxitin 30 μg/disc
[10] = 30 μg/disc compound plus Cephalothin 30 μg/disc
[11] = 30 μg/disc compound plus Mecillinam 10 μg/disc
[12] = 30 μg/disc compound plus N--f-thienamycin 30 μg/disc

Row | Structure (SMILES) | Interaction [1, 9] | Interaction [1, 10] | Interaction [1, 11] | Interaction [1, 12] | potentiation of β-lactam antibiotics [1] | potentiation of cell wall synthesis inhibitors other than β-lactams [2] | potentiation of β-lactam antibiotics [2] | enhancement of the antibacterial activity of β-lactam antibiotics [3] | also measured
1 | CC(=O)N[C@@H]1[C@H](O[C@@H]2C[C@@H](C(=O)N[C@@H](CCCCN)C(=O)N[C@H](C(=O)N[C@@H](CO)C(=O)O)[C@@H](C)O[C@@H]3O[C@@H](CO)[C@@H](O)[C@H](O)[C@@H]3NC(C)=O)NC2CO)O[C@@H](CO)[C@@H](OS(=O)(=O)O)[C@@H]1O (some centres unmarked) [SQ 28,504] | I | I | I | I | potentiate the activity of β-lactam antibiotics | potentiation occurs with cell wall synthesis inhibitors other than β-lactams | potentiate the activity of β-lactam antibiotics | potentiates the antibiotic activity of several β-lactam antibiotics; also recorded: enhance the antibacterial activity of β-lactam antibiotics | 
2 | CC(=O)N[C@H]1[C@H](OC2CC(C(=O)NC(CCCCN)C(=O)NC(C(=O)NC(CO)C(=O)NC(CCC(=O)O)C(=O)NC(CO)C(=O)O)C(C)O[C@@H]3O[C@H](CO)[C@@H](O)[C@H](O)[C@H]3NC(C)=O)NC2CO)O[C@H](CO)[C@@H](OS(=O)(=O)O)[C@@H]1O (some centres unmarked) [SQ 28,546] (H-[X1][ξK][ξT](βGlcNAc)[ξS][ξE][ξS]-OH) | I | I | I | I | potentiate the activity of β-lactam antibiotics | potentiation occurs with cell wall synthesis inhibitors other than β-lactams | potentiate the activity of β-lactam antibiotics | potentiates the antibiotic activity of several β-lactam antibiotics; also recorded: enhance the antibacterial activity of β-lactam antibiotics | MIC [4]: 25 µg/mL (≈ 21.2 µM); Interaction ([1]; 30 μg/disc compound plus Azocillin 30 μg/disc): I; Interaction ([1]; 30 μg/disc compound plus Cefamandole 30 μg/disc): I; Interaction ([1]; 30 μg/disc compound plus Cefotaxime 30 μg/disc): I; Interaction ([1]; 30 μg/disc compound plus Diumycin 30 μg/disc): I; Interaction ([1]; 30 μg/disc compound plus Fosfonomycin 30 μg/disc): I; Interaction ([1]; 30 μg/disc compound plus Penicillin G 100 Units/disc): I; Interaction ([1]; 30 μg/disc compound plus Vancomycin 30 μg/disc): I; Interaction ([2]; 30 μg/disc compound plus Vancomycin 30 μg/disc, Proteus rettgeri SC 8479): I; MIC [5]: 12.5 µg/mL (≈ 10.6 µM); MIC [6]: 12.5 µg/mL (≈ 10.6 µM); MIC [7]: > 100 µg/mL; MIC [8]: 25.0 µg/mL (≈ 21.2 µM)

— patent US4752469A, “Potentiators of beta-lactam antibiotics” (E. R. Squibb & Sons, Inc., priority 1984, dated 1988)
